8 molecules from patent US20240124417A1, “COMPOUNDS USEFUL AS IMMUNOMODULATORS” (Bristol-Myers Squibb Company, priority 2019, published 2024) can be followed below.

Each structure is given as a SMILES string.

T1 sequence (Q9NZQ7 18-239): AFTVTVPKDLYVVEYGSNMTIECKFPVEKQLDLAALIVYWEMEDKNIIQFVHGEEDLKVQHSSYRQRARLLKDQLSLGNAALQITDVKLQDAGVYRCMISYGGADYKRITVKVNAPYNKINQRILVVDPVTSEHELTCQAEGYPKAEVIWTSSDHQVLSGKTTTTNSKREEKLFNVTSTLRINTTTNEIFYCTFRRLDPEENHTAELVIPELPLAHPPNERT

This assay addresses T1, PD-1/PD-L1 (Homo sapiens, UniProt Q9NZQ7).
T1 construct: TVMV protease site linker (C); made in house; host or cells: HEK293T cells
Kind of assay: PD-1/PD-L1 Homogenous Time-Resolved Fluorescence (HTRF) binding assay. As to conditions: PD-L1-His 10 nM, PD-1-Ig 20 nM. The procedure, abridged: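 Time-resolved FRET read-out using Eu-cryptate anti-Ig (1 nM final) and APC anti-His (20 nM final). Tagged extracellular domains were used in BSA/Tween-20-supplemented dPBS, with compound pre-incubated 15 min with PD-L1-His (10 nM) before PD-1-Ig (20 nM) was added for 15 min. Other human pairs: PD-L2-His 5 nM with PD-1-Ig 20 nM; PD-L1-Ig 10 nM with CD80-His 100 nM.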
On the technique in general: In TR-FRET formats the signal depends on donor and acceptor labels being close together.
As usually defined, the IC50 is the midpoint of a concentration-inhibition curve. A higher IC50 goes with a need for much substance. Consider `Cc1c(COc2cc(OCc3cncc(C#N)c3)c(CN(C)Cc3ncco3)cc2Cl)cccc1-c1cccc(OCCCN2CC[C@@H](O)C2)c1C` [Example 2550, (R)-5-((4-chloro-5-((3′-(3-(3-hydroxypyrrolidin-1-yl)propoxy)-2,2′-dimethyl-[1,1′-biphenyl]-3-yl)methoxy)-2-((methyl(oxazol-2-ylmethyl)amino)methyl)phenoxy)methyl)nicotinonitrile], for which the IC50 was 0.5 nM.
Molecule `Cc1c(COc2cc(OCc3cncc(C#N)c3)c(CN(C)Cc3cnco3)cc2Cl)cccc1-c1cccc(OCCCN2CC[C@@H](O)C2)c1C` [Example 2551, (R)-5-((4-chloro-5-((3′-(3-(3-hydroxypyrrolidin-1-yl)propoxy)-2,2′-dimethyl-[1,1′-biphenyl]-3-yl)methoxy)-2-((methyl(oxazol-5-ylmethyl)amino)methyl)phenoxy)methyl)nicotinonitrile] came in with a half-inhibitory concentration (IC50) of 2.7 nM.
The molecule `Cc1c(COc2cc(OCc3cncc(C#N)c3)c(CN(C)Cc3cc(C4CC4)on3)cc2Cl)cccc1-c1cccc(OCCCN2CC[C@@H](O)C2)c1C` [Example 2552, (R)-5-((4-chloro-2-((((5-cyclopropylisoxazol-3-yl)methyl)(methyl)amino)methyl)-5-((3′-(3-(3-hydroxypyrrolidin-1-yl)propoxy)-2,2′-dimethyl-[1,1′-biphenyl]-3-yl)methoxy)phenoxy)methyl)nicotinonitrile] had an IC50 of 7.3 nM.
Regarding `CCc1csc(CN(C)Cc2cc(Cl)c(OCc3cccc(-c4cccc(OCCCN5CC[C@@H](O)C5)c4C)c3C)cc2OCc2cncc(C#N)c2)n1` [Example 2553, (R)-5-((4-chloro-2-((((4-ethylthiazol-2-yl)methyl)(methyl)amino)methyl)-5-((3′-(3-(3-hydroxypyrrolidin-1-yl)propoxy)-2,2′-dimethyl-[1,1′-biphenyl]-3-yl)methoxy)phenoxy)methyl)nicotinonitrile], the IC50 was 30.1 nM.
In the case of `Cc1c(COc2cc(OCc3cncc(C#N)c3)c(CN(C)Cc3nc4ccccc4s3)cc2Cl)cccc1-c1cccc(OCCCN2CC[C@@H](O)C2)c1C` [Example 2554, (R)-5-((2-(((benzo[d]thiazol-2-ylmethyl)(methyl)amino)methyl)-4-chloro-5-((3′-(3-(3-hydroxypyrrolidin-1-yl)propoxy)-2,2′-dimethyl-[1,1′-biphenyl]-3-yl)methoxy)phenoxy)methyl)nicotinonitrile], the IC50 came out at 258 nM.
For `Cc1c(COc2cc(OCc3cncc(C#N)c3)c(CNCc3nn(C)c4ccccc34)cc2Cl)cccc1-c1cccc(OCCCN2CC[C@@H](O)C2)c1C` [Example 2555, (R)-5-((4-chloro-5-((3′-(3-(3-hydroxypyrrolidin-1-yl)propoxy)-2,2′-dimethyl-[1,1′-biphenyl]-3-yl)methoxy)-2-((((1-methyl-1H-indazol-3-yl)methyl)amino)methyl)phenoxy)methyl)nicotinonitrile], the IC50 came to 0.4 nM.
`Cc1c(COc2cc(OCc3cncc(C#N)c3)c(CNCc3ccnn3C)cc2Cl)cccc1-c1cccc(OCCCN2CC[C@@H](O)C2)c1C` [Example 2556, (R)-5-((4-chloro-5-((3′-(3-(3-hydroxypyrrolidin-1-yl)propoxy)-2,2′-dimethyl-[1,1′-biphenyl]-3-yl)methoxy)-2-((((1-methyl-1H-pyrazol-5-yl)methyl)amino)methyl)phenoxy)methyl)nicotinonitrile]: the IC50 stood at 0.8 nM.
The molecule `Cc1c(COc2cc(OCc3cncc(C#N)c3)c(CNCc3nc4ccccc4n3Cc3ccccc3)cc2Cl)cccc1-c1cccc(OCCCN2CC[C@@H](O)C2)c1C` [Example 2557, (R)-5-((2-((((1-benzyl-1H-benzo[d]imidazol-2-yl)methyl)amino)methyl)-4-chloro-5-((3′-(3-(3-hydroxypyrrolidin-1-yl)propoxy)-2,2′-dimethyl-[1,1′-biphenyl]-3-yl)methoxy)phenoxy)methyl)nicotinonitrile] yielded an IC50 of 73.3 nM.
